Counter-ions that a name gives are not always drawn. No end group written: not given here.

The source of these data is US11400081B2, “Compounds” (The University of Sheffield, priority 2017, dated 2022).

Experiment [1] deals with T1, AM2 receptor (CALCRL+RAMP3) (Homo sapiens, UniProt O60896+Q16602).
T1 construct: host or cells: 1321N1
As to the kind of experiment: AM2 receptor inhibition, LANCE TR-FRET cAMP agonist-antagonist competition assay. The settings on record: inhibition of AM induced cAMP activation; 1321N1 cells transfected with CALCRL+RAMP3; read-out: AM2 pIC50 (converted). The format is cell-based.

For experiment [2], the system named is human pancreatic cancer cells. The note with it: local injection directly into tumours, pancreatic cancer model; cited from earlier work.

T1 sequence (Q16602 23-461): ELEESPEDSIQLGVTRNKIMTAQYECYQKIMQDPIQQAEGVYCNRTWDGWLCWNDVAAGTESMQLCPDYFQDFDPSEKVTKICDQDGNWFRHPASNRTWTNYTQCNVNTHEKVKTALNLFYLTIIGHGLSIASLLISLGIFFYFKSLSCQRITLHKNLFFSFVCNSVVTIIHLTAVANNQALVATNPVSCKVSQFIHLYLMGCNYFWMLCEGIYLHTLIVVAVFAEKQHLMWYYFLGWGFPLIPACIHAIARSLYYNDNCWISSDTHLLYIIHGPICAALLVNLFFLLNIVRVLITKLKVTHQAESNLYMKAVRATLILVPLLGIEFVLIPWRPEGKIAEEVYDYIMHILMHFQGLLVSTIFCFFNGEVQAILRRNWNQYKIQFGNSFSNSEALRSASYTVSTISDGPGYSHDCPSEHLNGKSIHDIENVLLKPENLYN
T1 sequence (O60896 24-148): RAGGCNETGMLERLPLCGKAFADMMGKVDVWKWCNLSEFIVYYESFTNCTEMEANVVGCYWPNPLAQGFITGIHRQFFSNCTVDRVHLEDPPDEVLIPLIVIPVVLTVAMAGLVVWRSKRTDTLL

Turning to `CNCc1ccccc1CN(CC(=O)Nc1ccc2c(c1)C[C@@]1(C2)C(=O)Nc2ncccc21)C(=O)C(C)(C)F` [Example 95, (R)-2-Fluoro-2-methyl-N-(2-((methylamino)methyl)benzyl)-N-(2-oxo-2-((2′-oxo-1,1′,2′,3-tetrahydrospiro[indene-2,3′-pyrrolo[2,3-b]pyridin]-5-yl)amino)ethyl)propanamide 2,2,2-trifluoroacetate], in experiment [1], the IC50 is 28.8 nM.

With `CNCc1ccccc1CN(CC(=O)Nc1ccc2c(c1)C[C@@]1(C2)C(=O)Nc2ncccc21)C(=O)C(C)(C)C(F)(F)F` [Example 96, 3,3,3-trifluoro-2,2-dimethyl-N-[[2-(methylaminomethyl)phenyl]methyl]-N-[2-oxo-2-[[(3R)-2-oxospiro[1H-pyrrolo[2,3-b]pyridine-3,2′-indane]-5′-yl]amino]ethyl]propanamide 2,2,2-trifluoroacetate], in experiment [1], the IC50 is 49 nM. Take `CNCc1ccccc1CN(CC(=O)Nc1ccc2c(c1)C[C@@]1(C2)C(=O)Nc2ncccc21)C(=O)C(C)(C)CC(F)(F)F` [Example 97, 4,4,4-Trifluoro-2,2-dimethyl-N-[[2-(methylaminomethyl)phenyl]methyl]-N-[2-oxo-2-[[(3R)-2-oxospiro[1H-pyrrolo[2,3-b]pyridine-3,2′-indane]-5′-yl]amino]ethyl]butanamide 2,2,2-trifluoroacetate]: in experiment [1], the IC50 is 60.3 nM. The same measure, in the same setting: the value for `CCC1(C(=O)N(CC(=O)Nc2ccc3c(c2)C[C@@]2(C3)C(=O)Nc3ncccc32)Cc2ccccc2CNC)CCOCC1` [Example 98, 4-Ethyl-N-[[2-(methylaminomethyl)phenyl]methyl]-N-[2-oxo-2-[[(3R)-2-oxospiro[1H-pyrrolo [2,3-b]pyridine-3,2′-indane]-5′-yl]amino]ethyl]tetrahydropyran-4-carboxamide 2,2,2 trifluoroacetate] was 21.4 nM. Still for that read-out and setting: the value for `NCc1ccccc1CN(CC(=O)Nc1ccc2c(c1)C[C@@]1(C2)C(=O)Nc2ncccc21)C(=O)C1(C(F)(F)F)CC1` [Example 99, N-[[2-(Aminomethyl)phenyl]methyl]-N-[2-oxo-2-[(2-oxospiro[1H-pyrrolo[2,3-b]pyridine-3,2′-indane]-5′-yl)amino]ethyl]-1-(trifluoromethyl)cyclopropylcarboxamide 2,2,2-trifluoroacetate] was 245 nM.

Regarding `CNCc1ccccc1CN(CC(=O)Nc1ccc2c(c1)C[C@@]1(C2)C(=O)Nc2ncccc21)C(=O)C12CC(NC(C)=O)(C1)C2` [Example 100, 3-Acetamido-N-[[2-(methylaminomethyl)phenyl]methyl]-N-[2-oxo-2-[[(3R)-2-oxospiro[1H-pyrrolo[2,3-b]pyridine-3,2′-indane]-5′-yl]amino]ethyl]bicyclo[1.1.1]pentane-1-carboxamide 2,2,2-trifluoroacetate], the IC50 in experiment [1] is 309 nM.

Regarding `CC(C)(C)C(=O)N(CC(=O)Nc1ccc2c(c1)C[C@@]1(C2)C(=O)Nc2ncccc21)C1CNCc2ccccc21` (some centres unmarked) [Example 101, 2,2-Dimethyl-N-[2-oxo-2-[(2-oxospiro[1H-pyrrolo[2,3-b]pyridine-3,2′-indane]-5′-yl)amino]ethyl]-N-(1,2,3,4-tetrahydroisoquinolin-4-yl)propanamide 2,2,2-trifluoroacetate], the IC50 in experiment [1] is 39.8 nM.

Take `CNCc1ccccc1CN(CC(=O)Nc1cc2c(cn1)CC1(C2)C(=O)Nc2ncccc21)C(=O)C(C)(C)C` (centres unmarked) [Example 103, N-(2-((Methylamino)methyl)benzyl)-N-(2-oxo-2-((2′-oxo-1′,2′,5,7-tetrahydrospiro[cyclopenta[c]pyridine-6,3′-pyrrolo[2,3-b]pyridin]-3-yl)amino)ethyl)pivalamide]: the IC50 in experiment [1] is 24 nM.

As for `CNCc1ccccc1CN(CC(=O)Nc1ccc2c(n1)CC1(C2)C(=O)Nc2ncccc21)C(=O)C(C)(C)C` (centres unmarked) [Example 104, N-(2-((methylamino)methyl)benzyl)-N-(2-oxo-2-((2′-oxo-1′,2′,5,7-tetrahydrospiro[cyclopenta[b]pyridine-6,3′-pyrrolo[2,3-b]pyridin]-2-yl)amino)ethyl)pivalamide], in experiment [1], the IC50 was 151 nM.

`CNCc1ccccc1CN(CC(=O)Nc1cnc2c(c1)CC1(C2)C(=O)Nc2ncccc21)C(=O)C(C)(C)C` (centres unmarked) [Example 105, N-(2-((methylamino)methyl)benzyl)-N-(2-oxo-2-((2′-oxo-1′,2′,5,7-tetrahydrospiro[cyclopenta[b]pyridine-6,3′-pyrrolo[2,3-b]pyridin]-3-yl)amino)ethyl)pivalamide 2,2,2-trifluoroacetate]: the IC50 in experiment [1] is 50.1 nM.

For “AM22-52: "the AM peptide antagonist (AM22-52)"; "peptide and antibody AM2 receptor inhibitors are known such as AM22-52" (TVQKLAHQIYQFTDKDKDNVAPRSKISPQGY; ends and bridges not checked; UniProt P35318 116-146, looked up, fragment)”, the “tumour size compared to controls” value in experiment [2] was “reduced tumour size significantly”.
